How the values were obtained:
[1] = test system: BDNF release by primary rat astrocytes; assay: BDNF release by primary rat astrocytes, in situ ELISA; assay type: cell-based; details: 1 μM, 5 days incubation
Description: At confluency, astrocytes were plated in 96-well Nunc MaxiSorp surface polystyrene flat-bottom immunoplate precoated with poly-D-lysine during 30 min. and an anti-BDNF monoclonal antibody overnight at 4° C. at a density of 30,000 cells/well. […] At the end of drug treatment, cells were carefully washed with TBST (20 mM Tris-HCl (pH 7.6), 150 mM NaCl, and 0.05% (vol/vol) Tween 20). The plate was then incubated with the polyclonal anti-human BDNF antibody overnight and BDNF quantified. Experimental Protocol-In Situ ELISA on Primary Astrocytes Rat Primary Culture of Astrocytes Rat mixed glial cells were cultured as described by McCarthy et al. Primary rat glial cells were prepared from the cortical of newborn Wistar rats (1 day). […] Medium was changed 3 times per week. At confluency, astrocytes were plated in 96-well Nunc MaxiSorp surface polystyrene flat-bottom immunoplate precoated with poly-D-lysine during 30 min (Sigma, Ref: […], batch: SLBS8705) and an anti-BDNF monoclonal antibody overnight at 4° C. at a density of 30,000 cells/well. (Balkowiec and Katz “Cellular Mechanisms Regulating Activity-Dependent Release of Native Brain-Derived Neurotrophic Factor from Hippocampal Neurons” J. […] At the end of drug treatment, cells were carefully washed with TBST (20 mM Tris-HCl (pH 7.6), 150 mM NaCl, and 0.05% (vol/vol) Tween 20). The plate was then incubated with the polyclonal anti-human BDNF antibody overnight. The amount of specifically bound polyclonal antibody, which when exposed to chromogenic substrate (TMB reagent; Promega), changes color in proportion to the amount of BDNF present in the sample. The color intensity was quantified by measuring the absorbance at 450 nm. BDNF standards, ranging in concentration from 0 to 500 pg/mL were added in parallel wells in the same medium than hippocampal neurons.

[2] = test system: BDNF release by primary hippocampal neurons; assay: BDNF release by primary hippocampal neurons, in situ ELISA; assay type: cell-based, rat; details: 1 μM, 3 days incubation
Description: Hippocampal neurons were plated in 96-well Nunc MaxiSorp surface polystyrene flat-bottom immunoplate precoated with poly-D-lysine during 30 min an anti-BDNF monoclonal antibody overnight at 4° C. at a density of 70,000 cells/well. […] At the end of drug treatment, cells were carefully washed with TBST (20 mM Tris-HCl (pH 7.6), 150 mM NaCl, and 0.05% (vol/vol) Tween 20). The plate was then incubated with the polyclonal anti-human BDNF antibody overnight and BDNF quantified.
Experimental Protocol—In Situ ELISA on Primary Hippocampal Neurons Hippocampal Neuron Culture
Newborn rats (Wistar rats, Janvier) were deeply anesthetized by hypothermia and decapitated. […] Cells were mechanically dissociated by 3 passages through a 10 ml pipette. Cells were then centrifuged at 515×g for 10 min at 4° C. […] Viable cells were counted in a Neubauer cytometer using the trypan blue exclusion test.
Hippocampal neurons were plated in 96-well Nunc MaxiSorp surface polystyrene flat-bottom immunoplate precoated with poly-D-lysine during 30 min (Sigma, Ref: P7886, batch: SLBS8705) an anti-BDNF monoclonal antibody overnight at 4° C. at a density of 70000 cells/well.
At the end of drug treatment, cells were carefully washed with TBST (20 mM Tris-HCl (pH 7.6), 150 mM NaCl, and 0.05% (vol/vol) Tween 20). The plate was then incubated with the polyclonal anti-human BDNF antibody overnight. The amount of specifically bound polyclonal antibody was then detected through the use of the anti-IgY-horseradish peroxidase tertiary antibody, which when exposed to the chromogenic substrate (TMB reagent; Promega), changes color in proportion to the amount of BDNF present in the sample. The color intensity was quantified by measuring the absorbance at 450 nm.

[3] = modified release (MR) formulation of Compound (I) that reduces QT prolongation; cited from earlier work
[4] = test system: GDNF release by primary rat astrocytes; assay: GDNF release by primary rat astrocytes, in situ ELISA; assay type: cell-based; details: 1 μM, 5 days incubation
Description: Experimental Protocol-In Situ ELISA on Primary Astrocytes Rat Primary Culture of Astrocytes Rat mixed glial cells were cultured as described by McCarthy et al. Primary rat glial cells were prepared from the cortical of newborn Wistar rats (1 day). Briefly, meninges and blood vessels of the mice cortex were removed and placed in ice-cold medium of Leibovitz (L15; PanBiotech, ref P04-27055, batch 4511117) containing 2% Penicillin-Streptomycin (PS; PanBiotech, ref P06-07100, batch 2110917) and 1% of bovine serum albumin (BSA; […] Cells were then submitted to a supplementary incubation of 15 min. at 37° C. in presence of deoxyribonuclease I (0.1 mg/mL Panbiotech, ref: P60-37780100, batch: H140508). Cells were then pelleted (5 min. at 1200 rpm) and trypsinization was stopped by adding DMEM (PanBiotech, Ref P04-03600, Batch 8420517) supplemented with 10% FCS (Fischer, Ref 10270106, batch 41A0940K), 1 mM of Na/pyruvate (PanBiotech, ref: P04-43100, batch 3470914). Cells suspension was mechanically dissociated and filtered through […] diameter nylon meshes (BD Falcon, Ref: 352340). The cells were collected by centrifugation at 1200 rpm/min for 10 min, resuspended in culture medium and then plated in culture flasks (Dutscher, ref: 690175). Cells were seeded at a density of 1.25×10^5 cells/cm^2 and culture in 5% CO2 at 37° C. Medium was changed 3 times per week. At confluency, astrocytes were plated in 96-well Nunc MaxiSorp surface polystyrene flat-bottom immunoplate precoated with poly-D-lysine during 30 min (Sigma, Ref: […], batch: SLBS8705) and an anti-GDNF monoclonal antibody overnight at 4° C. at a density of 30,000 cells/well. […] At the end of drug treatment, cells were carefully washed with TBST (20 mM Tris-HCl (pH 7.6), 150 mM NaCl, and 0.05% (vol/vol) Tween 20). The plate was then incubated with the polyclonal anti-human GDNF antibody overnight. The amount of specifically bound polyclonal antibody, which when exposed to chromogenic substrate (TMB reagent; Promega), changes color in proportion to the amount of GDNF present in the sample. The color intensity was quantified by measuring the absorbance at 450 nm. GDNF standards, ranging in concentration from 0 to 500 pg/mL were added in parallel wells in the same medium than hippocampal neurons.

[5] = test system: BDNF expression by astrocytes; assay: BDNF expression by astrocytes, qPCR; assay type: cell-based, rat; details: for BDNF expression astrocytes, % increase of control conditions: 25 ug/mL, 5 days incubation
Description: For analysis of BDNF expression by real-time quantitative polymerase chain reaction (qPCR), astrocytes were seeded in 24 well-plates pre-coated with poly-D-lysine. After 1 day of culture, fresh serum free medium containing compounds was added during 5 days at 37° C. At the end of the incubation time total RNA content were extracted and reverse transcription was performed. Expression levels were calculated using the ΔCt method where the expression level of the mRNA of interest is given by 2-ΔCT with ΔCT=CT target mRNA−CT reference mRNA (Gapdh), in the same sample.
Rat Primary Culture of Astrocytes—rat mixed glial cells were cultured as described by McCarthy et al., 1980. Primary rat glial cells were prepared from the cortical of newborn Wistar rats (1 day). Briefly, meninges and blood vessels of the mice cortex were removed and placed in ice-cold medium of Leibovitz (L15; PanBiotech, ref P04-27055, batch 4511117) containing 2% of Penicillin-Streptomycin (PS; PanBiotech, ref P06-07100, batch 2110917) and 1% of bovine serum albumin (BSA; PanBiotech, ref P06-1391100, batch H171006). Tissues were dissociated with 0.25% trypsin-EDTA (PanBiotech, ref P10-023100, batch 8970318) at 37° C. for 10 min. Cells were then submitted to a supplementary incubation of 15 min at 37° C. in presence of deoxyribonuclease I (0.1 mg/ml Panbiotech, ref: P60-37780100, batch: H170706). Cells were then pelleted (5 min at 1200 rpm) and trypsinization was stopped by adding DMEM (Panbiotech, Ref P04-03600, Batch 5181217) supplemented with 10% FCS (Fischer, Ref 10270106, batch 42G2068K), 1 mM of Na/pyruvate (PanBiotech, ref: P04-43100, batch: 3470914) and 2% PS. Cells suspension was mechanically dissociated and filtered through 40 μm diameter nylon meshes (BD Falcon, Ref: 352340). The cells were collected by centrifugation at 1200 rpm/min for 10 min, re-suspended in culture medium and then plated in culture flasks (Dutscher, ref: 690175). Cells were seeded at a density of 1.25×10^5 cells/cm^2 and cultured in 5% CO2 at 37° C. Medium was changed three times per week.
Analysis of BDNF expression by real-time quantitative polymerase chain reaction (PCR): astrocytes were seeded in 24 well-plates pre-coated with poly-D-lysine (Sigma, ref P7886, batch: SLBQ9797V). After 1 day of culture, fresh serum free medium containing compounds was added during 5 days at 37° C. At the end of the incubation time, medium was removed and total RNA content were extracted using kit nucleo spin RNS XS (Macherey Nagel; 20 μL/well). 6 wells/condition were done. RNA concentration was determined using a Nanodrop 2000 spectrophotometer (Life Technologies ThermoFisher Scientific, Villebon sur Yvette, France).
Reverse transcription was performed on 500 ng of RNA using the high capacity RNA-to-cDNA mix (Applied Biotechnologies). qPCR was performed on 12.5 ng of cDNA using the following primers, purchased from Applied Biotechnology.
For qPCR reactions, the kit TaqMan™ Fast Universal PCR Master Mix (2×) was used. The following volumes were used: mix: 10 uL, enzyme: 4 uL, oligo: 1 uL each, cDNA: 5 uL (12,5 ng). For the comparisons between various compounds and concentrations, expression levels were calculated using the ΔCt method where the expression level of the mRNA of interest is given by 2-ΔCT with ΔCT=CT target mRNA−CT reference mRNA (Gapdh), in the same sample. For the cultures treated with GA or the unknown compound, relative expression levels were determined according to the ΔΔCt method where the expression level of the mRNA of interest is given by 2-ΔΔCT where ΔΔCT=ΔCt for treated cultures−ΔCt for untreated cultures.

CCCN1CCC(c2cccc(S(C)(=O)=O)c2)CC1 [Pridopidine, pridopidine, reference compound]
BDNF release astrocytes, % increase of control conditions [1]: 22.3%
BDNF release astrocytes, % increase of control conditions ([1]; listed as pridopidine): 22%
BDNF release hippocampal neurons, % increase of control conditions [2]: 18.4%
BDNF release hippocampal neurons, % increase of control conditions ([2]; listed as pridopidine): 18.4%

O=C1c2ccccc2CN1CC1CCN(CC(O)c2ccc(F)cc2)CC1 (stereo not shown) [BFB-520]
maximum plasma concentration (Cmax) [3]: < 12 ng/mL

Cc1cccc([C@H](C)c2cnc[nH]2)c1C [Dexmedetomidine, dexmedetomidine, reference compound]
GDNF release astrocytes, % increase of control conditions [4]: 15.8%
GDNF release astrocytes, % increase of control conditions ([4]; listed as dexmedetomidine): 15.8%

glatiramer acetate [reference compound]
BDNF expression astrocytes, % increase of control conditions [5]: 10%
BDNF expression astrocytes, % increase of control conditions ([5]; listed as glatiramer acetate): 10%
Effect on BDNF expression by astrocytes compared to control condition (statistical) ([5]; 25 μg/mL, 5 days, ns p>0.05): no effect

Source: patent US11083723B2, “Use of roluperidone to treat negative symptoms and disorders, increase neuroplasticity, and promote neuroprotection” (Minerva Neurosciences, Inc., priority 2018, dated 2021)
